# Assay results: patent US20030180291A1, “Method of inactivating viruses” (priority 1998, published 2003)
# “And” between values parts separate entries of the source, which are not always exact repeats. Equal values may be shown once.
# Legend:
# humane erythrocytes = assay type: cell-based, human
# [1] = test system: PseudoRabies virus (PSR, strain Bartha K61)
# [2] = test system: Vesicular Stomatitis virus (VSV); assay type: cell-based
# [3] = test system: Humane Immunodeficiency Virus Type 1 (HIV-1, strain HTLV-IIIb)
# [4] = test system: Vesicular Stomatitis (VSV, strain Indiana)
SMILES,haemolysis after the erythrocytes had been stored for 12 days at 4° C. (humane erythrocytes),effect of dipyridamol on the effective concentration of sensitizer [1],effect of light exposure on virus inactivation in absence of sensitizer [2],effect of dipyridamol on the effective concentration of sensitizer [3],effect of dipyridamol on the effective concentration of sensitizer [4],effective [DMMB] [1],effective [DMMB] [3],effective [DMMB] [4]
OCCN(CCO)c1nc(N2CCCCC2)c2nc(N(CCO)CCO)nc(N3CCCCC3)c2n1 [dipyridamol],very strong reduction,"did not, or only barely appear to affect",no effect at all,"did not, or only barely appear to affect","did not, or only barely appear to affect",,,
Cc1ncc(COP(=O)(O)O)c(C=O)c1O [pyridoxal phosphate],,,no effect at all,,,,,
"Cc1cc(=[N+](C)C)cc2sc3cc(N(C)C)cc(C)c3nc1-2.[Cl-] [DMMB, dimethyl-methylene blue]",,,,,,4 µM,8 µM,4 µM and 5 µM
